The source of these data is ChEMBL document CHEMBL4627415, “Design and Structural Optimization of Dual FXR/PPARδ Activators” (J Med Chem, 2020).

The target in assay [1] is T1, Bile acid receptor (Homo sapiens) (UniProt Q96RI1).
T1 sequence (whole entry): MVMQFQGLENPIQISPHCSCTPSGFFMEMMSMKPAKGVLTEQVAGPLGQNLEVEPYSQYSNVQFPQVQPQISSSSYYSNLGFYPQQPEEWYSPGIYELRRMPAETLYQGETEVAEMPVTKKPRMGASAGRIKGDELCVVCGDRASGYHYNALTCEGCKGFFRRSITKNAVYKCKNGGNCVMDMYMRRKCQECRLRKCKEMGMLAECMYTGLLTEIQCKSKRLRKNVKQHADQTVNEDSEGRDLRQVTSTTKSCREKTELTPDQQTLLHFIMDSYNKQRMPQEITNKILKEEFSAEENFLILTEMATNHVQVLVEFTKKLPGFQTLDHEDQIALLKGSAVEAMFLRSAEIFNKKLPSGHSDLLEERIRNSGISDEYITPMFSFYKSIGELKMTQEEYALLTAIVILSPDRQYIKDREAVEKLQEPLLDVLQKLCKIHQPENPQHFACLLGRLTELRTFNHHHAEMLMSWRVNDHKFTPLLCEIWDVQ
Briefly: Activation of FXR in human HepG2 cells assessed as increase in SHP mRNA expression at 3 uM incubated for 8 hrs by quantitative real time PCR analysis. Format: cell-based. For orientation: Quantitative PCR measures a nucleic acid by following its amplification.

The target of assay [2] is T2, Retinoic acid receptor alpha (Homo sapiens) (UniProt P10276).
T2 sequence (whole entry): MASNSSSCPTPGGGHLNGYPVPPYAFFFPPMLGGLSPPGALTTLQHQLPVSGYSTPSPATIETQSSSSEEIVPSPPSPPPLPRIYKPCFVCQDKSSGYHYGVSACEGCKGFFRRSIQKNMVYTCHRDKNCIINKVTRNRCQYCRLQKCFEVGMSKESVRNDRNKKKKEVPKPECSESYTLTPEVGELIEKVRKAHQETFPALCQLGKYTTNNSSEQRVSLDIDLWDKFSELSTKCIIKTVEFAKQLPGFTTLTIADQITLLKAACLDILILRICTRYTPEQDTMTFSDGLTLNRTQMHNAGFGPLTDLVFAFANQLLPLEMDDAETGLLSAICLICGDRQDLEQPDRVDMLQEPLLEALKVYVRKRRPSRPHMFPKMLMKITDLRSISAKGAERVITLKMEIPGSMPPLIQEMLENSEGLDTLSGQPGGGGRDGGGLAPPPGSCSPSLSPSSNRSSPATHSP
The assay is described as follows: Activation of human RAR-alphaLBD expressed in HEK293T cells assessed as induction of receptor activation at 10 uM incubated for 12 to 14 hrs by luciferase reporter gene assay. Format: cell-based. Conditions: HEK-293T. (Reporter assays use an easily measured gene product as a stand-in for the process of interest.)

In assay [3] the target is T3, Peroxisome proliferator-activated receptor delta (Homo sapiens) (UniProt Q03181).
T3 sequence (whole entry): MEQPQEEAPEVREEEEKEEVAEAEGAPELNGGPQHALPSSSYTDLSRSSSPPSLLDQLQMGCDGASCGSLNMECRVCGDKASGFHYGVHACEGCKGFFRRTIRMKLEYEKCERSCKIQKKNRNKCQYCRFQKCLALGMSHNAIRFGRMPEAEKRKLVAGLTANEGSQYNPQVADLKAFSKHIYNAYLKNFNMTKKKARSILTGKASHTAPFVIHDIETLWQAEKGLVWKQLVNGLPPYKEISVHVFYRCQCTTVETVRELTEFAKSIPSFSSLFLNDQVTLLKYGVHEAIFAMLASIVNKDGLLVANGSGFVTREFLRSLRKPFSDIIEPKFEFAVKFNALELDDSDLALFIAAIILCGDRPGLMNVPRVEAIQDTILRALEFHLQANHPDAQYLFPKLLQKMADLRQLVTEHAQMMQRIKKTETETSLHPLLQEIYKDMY
The assay is described as follows: Activation of human PPAR-delta LBD expressed in HEK293T cells assessed as induction of receptor activation at 1 uM incubated for 12 to 14 hrs by luciferase reporter gene assay relative to L165,041. The conditions noted are these: HEK-293T. It is filed as cell-based.

Assay [4] concerns the target T4, Bile acid receptor (Homo sapiens, UniProt Q96RI1).
T4 sequence (Q96RI1 whole entry): T1 sequence (whole entry)
The assay is described as follows: Activation of human FXR LBD expressed in HEK293T cells assessed as induction of receptor activation incubated for 12 to 14 hrs by luciferase reporter gene assay. It is filed as cell-based, HEK-293T.

Assay [5] deals with T3, Peroxisome proliferator-activated receptor delta (Homo sapiens). The assay is described as follows: Activation of human PPAR-delta LBD expressed in HEK293T cells assessed as induction of receptor activation at 1 to 3 uM incubated for 12 to 14 hrs by luciferase reporter gene assay. Format: cell-based. The conditions noted are these: HEK-293T.
For assay [6], the target named is T5, Peroxisome proliferator-activated receptor delta (Mus musculus) (UniProt P35396).
T5 sequence (whole entry): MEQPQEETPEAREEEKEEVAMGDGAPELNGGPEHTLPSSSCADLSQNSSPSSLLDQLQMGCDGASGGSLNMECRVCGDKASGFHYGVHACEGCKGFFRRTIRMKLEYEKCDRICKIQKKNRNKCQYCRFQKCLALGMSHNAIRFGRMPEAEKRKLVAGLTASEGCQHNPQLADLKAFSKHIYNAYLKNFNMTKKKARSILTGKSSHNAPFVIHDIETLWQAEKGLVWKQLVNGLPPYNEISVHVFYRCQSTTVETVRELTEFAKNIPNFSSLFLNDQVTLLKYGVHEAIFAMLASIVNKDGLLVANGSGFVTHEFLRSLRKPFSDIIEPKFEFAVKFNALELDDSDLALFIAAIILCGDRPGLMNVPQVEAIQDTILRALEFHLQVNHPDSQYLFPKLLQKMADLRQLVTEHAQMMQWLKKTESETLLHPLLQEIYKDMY
Briefly: Activation of PPARD in mouse C2C12 cells assessed as increase LpL mRNA expression at 3 uM incubated for 8 hrs by quantitative real time PCR analysis. It is filed as cell-based.

Assay [7] concerns the target T6, Retinoic acid receptor RXR-alpha (Homo sapiens) (UniProt P19793).
T6 sequence (whole entry): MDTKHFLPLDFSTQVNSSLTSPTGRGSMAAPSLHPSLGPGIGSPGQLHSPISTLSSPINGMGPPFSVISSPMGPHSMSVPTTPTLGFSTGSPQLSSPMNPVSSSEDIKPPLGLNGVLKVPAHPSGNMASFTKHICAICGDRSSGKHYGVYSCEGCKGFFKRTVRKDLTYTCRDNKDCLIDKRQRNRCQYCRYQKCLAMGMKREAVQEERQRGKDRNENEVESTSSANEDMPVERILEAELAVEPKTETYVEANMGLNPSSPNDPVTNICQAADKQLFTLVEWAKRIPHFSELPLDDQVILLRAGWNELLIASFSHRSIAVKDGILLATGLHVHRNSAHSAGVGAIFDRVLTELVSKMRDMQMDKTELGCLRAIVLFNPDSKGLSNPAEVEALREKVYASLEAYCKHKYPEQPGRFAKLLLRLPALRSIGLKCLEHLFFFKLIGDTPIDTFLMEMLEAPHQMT
Briefly: Activation of human RXR-alphaLBD expressed in HEK293T cells assessed as induction of receptor activation at 10 uM incubated for 12 to 14 hrs by luciferase reporter gene assay. Format: cell-based. Conditions: HEK-293T.

Active and inactive are the calls of the source. The calls are words filed in the database; no cut-off is given here.

For the molecule `CC(C)c1onc(-c2c(Cl)cccc2Cl)c1COc1ccc(CNc2ccc(CC(=O)O)cc2)c(Cl)c1`, the outcome in assay [1], in assay [5] and in assay [6] was Active. Besides, the outcome in assay [2] and in assay [7] was inactive. Also, the %max in assay [3] worked out at 17%. Also, the EC50 (as a rule, the concentration giving half of the maximal effect) in assay [4] is 940 nM.
